Experimental findings from ChEMBL document CHEMBL5365539, “Selective modifications of lactose and N-acetyllactosamine with sulfate and aromatic bulky groups unveil unique structural insights in galectin-1-ligand recognition” (Bioorg Med Chem, 2023) are described below.

For experiment [1], the target named is T1, Galectin-1 (Homo sapiens, UniProt P09382). In words: Binding affinity to human recombinant Gal-1 assessed as change in enthalpy by ITC analysis.
For experiment [2], the target named is T1, Galectin-1. In words: Binding affinity to human recombinant Gal-1 assessed as association constant by ITC analysis.
Experiment [3] has as its target T1, Galectin-1. Description: Binding affinity to human recombinant Gal-1 assessed as change in entropy by ITC analysis.
The target of experiment [4] is T1, Galectin-1. Description: Potency index, ratio of test compound IC50 to (2S,3R,4S,5R,6R)-2-(((2R,3S,4R,5R,6R)-4,5 dihydroxy-2-(hydroxymethyl)-6 methoxytetrahydro-2H-pyran-3-yl)oxy)-6(hydroxymethyl)tetrahydro-2H-pyran-3,4,5-triol IC50 for inhibition of asialofetuin binding to human recombinant Gal-1 transfected in Escherichia coli BL21 (DE3) incubated for 2 hrs by competitive solid-phase assay.

Experiment [5] has as its target T1, Galectin-1. In words: Binding affinity to human recombinant Gal-1 assessed as dissociation constant by ITC analysis.
Experiment [6] concerns the target T1, Galectin-1. In words: Inhibition of asialofetuin binding to human recombinant Gal-1 transfected in Escherichia coli BL21 (DE3) incubated for 2 hrs by competitive solid-phase assay.
In experiment [7] the target is T1, Galectin-1. In words: Binding affinity to human recombinant Gal-1 assessed as gibbs free energy change by ITC analysis.

T1 sequence (P09382 whole entry): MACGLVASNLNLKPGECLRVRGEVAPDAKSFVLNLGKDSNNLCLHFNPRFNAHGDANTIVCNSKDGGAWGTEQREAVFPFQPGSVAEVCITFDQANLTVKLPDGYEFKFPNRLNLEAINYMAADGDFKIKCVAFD

As for `OC[C@H]1O[C@@H](O[C@H]2[C@H](O)[C@@H](O)C(O)O[C@@H]2CO)[C@H](O)[C@@H](O)[C@H]1O` (stereo not given in full), the deltaH in experiment [1] is -28.4 kJ/mol. In addition, in experiment [2], the Ka was 3.2 10^3/M. Also, the deltaS in experiment [3] is -28 J/mol.K.
For the compound `COc1cc(C(=O)OC(C)(C)C)ccc1O[C@@H]1O[C@H](CO)[C@@H](O[C@@H]2O[C@H](CO)[C@H](O)[C@H](O)[C@H]2O)[C@H](O)[C@H]1O`, in experiment [1], the deltaH was -27.9 kJ/mol. For the same compound, the Ratio IC50 in experiment [4] turned out to be 0.48. Also, in experiment [5], the Kd is 0.206 mM. In experiment [2], the Ka was 4.9 10^3/M. In addition, the deltaS in experiment [3] was -23.1 J/mol.K. The IC50 in experiment [6] is 3.6 mM. Further, the deltaG in experiment [7] was -21 kJ/mol.
Turning to `CC(=O)N[C@H]1[C@H](Oc2ccc([N+](=O)[O-])cc2)O[C@H](CO)[C@@H](O[C@@H]2O[C@H](CO)[C@H](O)[C@H](OS(=O)(=O)O)[C@H]2O)[C@@H]1O`, in experiment [4], the Ratio IC50 was 0.83. The IC50 in experiment [6] was 6.1 mM.
Consider `CC(=O)N[C@H]1[C@H](Oc2ccc([N+](=O)[O-])cc2)O[C@H](CO)[C@@H](O[C@@H]2O[C@H](CO)[C@H](O)[C@H](O)[C@H]2O)[C@@H]1O`, for which, in experiment [4], the Ratio IC50 came out at 0.78. For the same compound, the IC50 in experiment [6] came out at 5.7 mM.
With `COc1cc(C=O)ccc1O[C@@H]1O[C@H](CO)[C@@H](O[C@@H]2O[C@H](CO)[C@H](O)[C@H](OS(=O)(=O)O)[C@H]2O)[C@H](O)[C@H]1O`, the Ratio IC50 in experiment [4] amounted to 0.82. In experiment [6], the IC50 was found to be 6.1 mM.
Take `CC(=O)N[C@H]1C(O)O[C@H](CO)[C@@H](O[C@@H]2O[C@H](CO)[C@H](O)[C@H](O)[C@H]2O)[C@@H]1O` (stereo not given in full): the Ratio IC50 in experiment [4] worked out at 1.02. In experiment [6], the IC50 amounted to 7.5 mM.
The like results for `C#CCO[C@@H]1O[C@H](CO)[C@@H](O[C@@H]2O[C@H](CO)[C@H](O)[C@H](OCC(=O)O)[C@H]2O)[C@H](O)[C@H]1NC(C)=O` were, in that order, 0.99 and 7.3 mM.
For the compound `COc1cc(C(=O)O)ccc1O[C@@H]1O[C@H](CO)[C@@H](O[C@@H]2O[C@H](CO)[C@H](O)[C@H](OS(=O)(=O)O)[C@H]2O)[C@H](O)[C@H]1O`, the deltaH in experiment [1] is -22.1 kJ/mol. In addition, the Ratio IC50 in experiment [4] was found to be 0.53. In addition, the Kd in experiment [5] came out at 0.284 mM. Moreover, in experiment [2], the Ka is 3.5 10^3/M. Further, the deltaS in experiment [3] is -6.2 J/mol.K. Also, the IC50 in experiment [6] was determined as 3.9 mM. Besides, the deltaG in experiment [7] is -20.2 kJ/mol.
`COc1cc(/C=C/C(=O)O)ccc1O[C@@H]1O[C@H](CO)[C@@H](O[C@@H]2O[C@H](CO)[C@H](O)[C@H](O)[C@H]2O)[C@H](O)[C@H]1O`: the Ratio IC50 in experiment [4] is 0.65. In addition, in experiment [6], the IC50 was 4.8 mM.
Regarding `C#CCO[C@@H]1O[C@H](CO)[C@@H](O[C@@H]2O[C@H](CO)[C@H](O)[C@H](O[C@]3(C(=O)O)C[C@H](O)[C@@H](NC(C)=O)[C@H]([C@@H](O)[C@H](O)CO)O3)[C@H]2O)[C@H](O)[C@H]1NC(C)=O`, the Ratio IC50 in experiment [4] was determined as 1.31. For the same compound, in experiment [6], the IC50 was 9.7 mM.
For the compound `C#CCO[C@@H]1O[C@H](CO)[C@@H](O[C@@H]2O[C@H](CO)[C@H](O)[C@H](O)[C@H]2O)[C@H](O)[C@H]1NC(C)=O`, the Ratio IC50 in experiment [4] was determined as 1.45. Further, in experiment [6], the IC50 came to 10.7 mM.
Take `O=[N+]([O-])c1ccc(O[C@@H]2O[C@H](CO)[C@@H](O[C@@H]3O[C@H](CO)[C@H](O)[C@H](OS(=O)(=O)O)[C@H]3O)[C@H](O)[C@H]2O)cc1`: in experiment [4], the Ratio IC50 is 0.79. Besides, the IC50 in experiment [6] turned out to be 5.9 mM.
Regarding `O=[N+]([O-])c1ccc(O[C@@H]2O[C@H](CO)[C@@H](O[C@@H]3O[C@H](CO)[C@H](O)[C@H](O)[C@H]3O)[C@H](O)[C@H]2O)cc1`, the Ratio IC50 in experiment [4] came out at 0.89. For the same compound, in experiment [6], the IC50 was determined as 6.6 mM.
The like results for `C#CCO[C@@H]1O[C@H](CO)[C@@H](O[C@@H]2O[C@H](CO)[C@H](O)[C@H](OS(=O)(=O)O)[C@H]2O)[C@H](O)[C@H]1NC(C)=O` were, in that order, 0.65 and 4.8 mM.
In the case of `C#CCO[C@@H]1O[C@H](CO)[C@@H](O[C@@H]2O[C@H](CO)[C@H](O)[C@H](O)[C@H]2O)[C@H](O)[C@H]1O`, in experiment [4], the Ratio IC50 is 0.83. The IC50 in experiment [6] was determined as 6.1 mM.
On to `COc1cc(CO)ccc1O[C@@H]1O[C@H](CO)[C@@H](O[C@@H]2O[C@H](CO)[C@H](O)[C@H](O)[C@H]2O)[C@H](O)[C@H]1O`, for which, in experiment [4], the Ratio IC50 came out at 1.46. Besides, in experiment [6], the IC50 turned out to be 10.8 mM.
Turning to `COc1cc(CCC(=O)O)ccc1O[C@@H]1O[C@H](CO)[C@@H](O[C@@H]2O[C@H](CO)[C@H](O)[C@H](O)[C@H]2O)[C@H](O)[C@H]1O`, the Ratio IC50 in experiment [4] is 0.56. In experiment [6], the IC50 was 4.1 mM.
Regarding `COC(=O)c1ccc(O[C@@H]2O[C@H](CO)[C@@H](O[C@@H]3O[C@H](CO)[C@H](O)[C@H](O)[C@H]3O)[C@H](O)[C@H]2O)c(OC)c1`, the Ratio IC50 in experiment [4] worked out at 1.02. In addition, the IC50 in experiment [6] was determined as 7.5 mM.
Consider `COc1cc(C(=O)OC(C)(C)C)ccc1O[C@@H]1O[C@H](CO)[C@@H](O[C@@H]2O[C@H](CO)[C@H](O)[C@H](OS(=O)(=O)O)[C@H]2O)[C@H](O)[C@H]1O`, for which, in experiment [1], the deltaH was -29 kJ/mol. Besides, in experiment [4], the Ratio IC50 was found to be 0.43. In addition, in experiment [5], the Kd is 0.117 mM. For the same compound, the Ka in experiment [2] is 8.6 10^3/M. The deltaS in experiment [3] is -21.3 J/mol.K. For the same compound, the IC50 in experiment [6] stood at 3.2 mM. Besides, the deltaG in experiment [7] is -22.5 kJ/mol.
As for `CO[C@@H]1O[C@H](CO)[C@@H](O[C@@H]2O[C@H](CO)[C@H](O)[C@H](O)[C@H]2O)[C@H](O)[C@H]1O`, the IC50 in experiment [6] is 7.4 mM.
